From patent US20240058363A1 (Emyria, priority 2020, published 2024)
Marks after values point to notes of the source that are not given here.

Tests used:
symptoms of stress = experiment: DASS-21 stress score in patients treated with CBD only (clinical data registry); assay type: in vivo, human; settings: for DASS-21 Stress Score, Post 1-month follow-up Mean (Std. dev): mean days of treatment 47 (+/−23)
Text: Detailed demographic information and validated standardised questionnaires were collected as part of routine care. Written informed consent to treatment was obtained from all patients, as well as additional consent to participate in Emyria's clinical data registry, data from participating patients were anonymised, aggregated, and analysed to establish clinical efficacy.
Clinically validated tools were used to monitor patients for management of symptoms, quality of life, physical/emotional functioning, and concomitant medication usage. Patients were asked about their cannabis history and initially pre-screened for any illicit cannabis use before commencing on medicinal cannabis treatment using the Cannabis Use Disorder Identification Test (CUDIT), a urine screen was performed to confirm negative result for cannabis in their urine before they commence treatment. After they commenced on medicinal cannabis treatment they were initially treated with low doses and monitored for safety and efficacy of treatment before dose escalation is considered.
Patients are excluded from treatment with medicinal cannabis if they: were pregnant or breast-feeding; have untreated heart disease, heart failure or arrhythmia; a history of severe psychiatric disorders; active suicidal ideation; a history of dependence on cannabis; a history of dependence or abuse of psychoactive substances; detectable urinary THC before commencement of medicinal cannabis.
A potentially eligible individual who met any of the following criteria will be excluded from participation if the following criteria is met: • 1. Clinically recorded cannabis drug addiction, or cannabis use disorder including individuals with scores 8 or more on the Cannabis Use Disorder Identification Test (CUDIT). • 2. Untreated cardiovascular disease, arrhythmias (other than well controlled atrial fibrillation), or severe heart failure. • 3. History of suicide attempts or suicidal ideation. • 4. History of psychotic episode, schizophrenia or other psychotic disorders.
Patients were assessed monthly by the clinical team (doctor and nurse) and a visit schedule protocol was followed for each patient. A full medical history was conducted at the initial visit, including a detailed history of the clinical indication (including duration symptoms), comorbidities mental and cardiac health conditions, previous procedures, medications and therapies tried. Patients were reviewed as per the Schedule of Assessments (FIG. 2). Cannabinoid dose and Adverse events were also recorded at each visit after treatment began and categorised as mild (no product change indicated), moderate (product change indicated), severe (product cessation indicated) or serious (life-threatening/medical emergency).
The doctors treating patients prescribed orally-based medicinal cannabis standardised products as per approval under the Therapeutic Goods Administration (TGA) through the Special Access Scheme (SAS) Category B and Authorised Prescriber (AP) scheme. The prescribing doctor will decide which product type including THC/CBD ratio and CBD only, based on TGA guidance documents (ie for pain THC/CBD type is generally prescribed) [see https://www.tga.gov.au/medicinal-cannabis-guidance-documents], but also will factor in patient's circumstances such as driving (then CBD only prescribed).
Treatment dosing by the prescribing doctor was in accordance with Emyria (Emerald Clinics) experience, well-tolerated with minimal side effects. Doctors reviewed patients after the 14 day (2 week), see the Schedule of Assessments (FIG. 2). Following the 2-week dosing review where a doctor may increase/decrease the dosage or change product type, patients were then seen regularly (generally monthly) as per the Schedule of Assessments (FIG. 2). Patients taking CBD only products were prescribed either oil or capsules. […]

symptoms of insomnia = experiment: Insomnia Severity Index (ISI) score in patients treated with CBD only; assay type: in vivo, human; set-up: key to Change in ISI score, Visit 1 coefficient in model with interaction terms / Change in ISI score between Visit 0 and Visit 1, by initial assessment category / Change in ISI score between Visit 0 and Visit 3 (third follow-up): change in Insomnia Severity Index (7-item self-report) score
Procedure: Insomnia may present as disturbed sleep, inability to get to sleep, inability to stay asleep and/or sleep that leaves the subject tired upon waking. The insomnia may be assessed using the Insomnia Severity Index (ISI) 7-item self-report questionnaire. […] More importantly perhaps, this global measure has been employed in number of recent clinical trials to assess the responses in insomnia to a wide variety of treatments.
Patients were assessed for inclusion/exclusion using the same screening criteria and population criteria collected for evaluation as in Example 1. Dosing regimens were the same as Example 1.
Column (1) first presents results from a pooled specification with a time specific dummy variable capturing the first follow-up visit (i.e., Visit 1) as the sole explanatory variable. […] Notice that the constant term (i.e., the intercept) reflects the average ISI score of 14.145 at baseline.
Column (2) then incorporates patient-fixed effects. Note that when including fixed effects at the person level, the constant term is dropped from the regression, as it is differenced out by the fixed effects estimator—in addition to any other (un)observable time-invariant individual characteristics which may influence ISI scores (such as personality traits or beliefs). As for our coefficient of interest, it continues to emerge as negative and statistically significant. In fact, it remains virtually unchanged from column (1) since the pooled data contains exactly two observations for each patient.
Finally, column (3) introduces interaction terms between the time dummy variable and binary indicators of starting with an ISI score in the ‘subthreshold insomnia’, ‘clinical insomnia (moderate severity)’, or ‘clinical insomnia (severe)’ category at baseline. The reference category here is determined by patients in the ‘no clinically significant insomnia’ category. Consistent with the visuals from FIG. 1, the reduction in insomnia score at the first follow-up is primarily driven by those who start in the ‘subthreshold insomnia’ category or higher at baseline.
Exploring this issue of persistence further, Table 9 presents regression-equation checks. In particular, column (1) replicates the benchmark results showing the change in […] between baseline and the first follow-up visit. Columns (2) and columns (3) then re-estimate the results between baseline and the second follow-up visit, and baseline and the third follow-up visit respectively.

[1] = average treatment window of slightly under 13 days
[2] = mean treatment horizon of 22 days
[3] = mean treatment period of 7 days

C=C(C)C1CCC(C)=CC1c1c(O)cc(CCCCC)cc1O (stereo not shown) [cannabidiol, 2-[3-methyl-6-(1-methylethenyl)-2-cyclohexen-1-yl]-5-pentyl-1,3-benzenediol]
DASS-21 Stress Score, Post 1-month follow-up Mean (Std. dev) (symptoms of stress; All (n = 146), initial mean 21.6 (9.5), p 0.000): 16.2 (9.5)
DASS-21 Stress Score, Post 1-month follow-up Mean (Std. dev) (symptoms of stress; Mod to extreme (n = 79), initial mean 28.8 (6.2), p 0.000): 20.5 (9.4)
Decrease in stress score (symptoms of stress; [1]): −9.0
DASS-21 Stress Score, Post 1-month follow-up Mean (Std. dev) (symptoms of stress; baseline category Extremely Severe 34+ (n = 18), initial mean 38.2 (2.4), p 0.000): 21.7 (12.2)
DASS-21 Stress Score, Post 1-month follow-up Mean (Std. dev) (symptoms of stress; baseline category Mild 15-18 (n = 27), initial mean 16.9 (1.0), p 0.038): 14.1 (6.5)
DASS-21 Stress Score, Post 1-month follow-up Mean (Std. dev) (symptoms of stress; baseline category Moderate 19-25 (n = 27), initial mean 22.4 (1.8), p 0.002): 17.2 (7.7)
DASS-21 Stress Score, Post 1-month follow-up Mean (Std. dev) (symptoms of stress; baseline category Normal 0-14 (n = 40), initial mean 10.6 (3.1), p 0.100): 9.0 (6.0)
DASS-21 Stress Score, Post 1-month follow-up Mean (Std. dev) (symptoms of stress; baseline category Severe 26-33 (n = 34), initial mean 28.9 (1.9), p 0.000): 22.6 (8.4)
Change in stress score from initial visit to first follow-up versus dosage (FIG. 7) (symptoms of stress; dosage amounts between 50-200 mg per day): correlated with a higher value of change indicating less symptoms of anxiety, stress and/or depression
Fall in stress score (symptoms of stress; [2]): −5.8
Decline in stress score (symptoms of stress; [3]): −16.0
Mean DASS-21 stress score over the first six months (FIG. 16) (symptoms of stress; patients with subthreshold and clinically significant scores at baseline): significant reduction over the 6-month period
Persistence of decrease in insomnia severity (symptoms of insomnia; after 4 and 6 months (Visits 2 and 3) of CBD only treatment): decrease in insomnia severity persists
Decrease in insomnia score (symptoms of insomnia; [1]): −5.0
Fall in insomnia score (symptoms of insomnia; [2]): −4.1
Decline in insomnia score (symptoms of insomnia; [3]): −7.2
Change in ISI score between Visit 0 and Visit 3 (third follow-up) (symptoms of insomnia; patient fixed effects, N 292, baseline mean 14.145, about 6 months, SE 0.854, p < 0.001): −4.313***
Change in ISI score between Visit 0 and Visit 2 (second follow-up) (symptoms of insomnia; patient fixed effects, N 349, baseline mean 14.145, about 4 months, SE 0.581, p < 0.001): −4.141***
Response of ISI score to treatment (symptoms of insomnia; patients beginning in the 'no clinically significant insomnia' category): do not exhibit any meaningful response
Mean ISI scores by baseline ISI category, initial versus first follow-up visit (FIG. 10) (symptoms of insomnia; patients starting with subthreshold, moderate and severe clinical insomnia, mean 46.9 days between visits): significantly lower mean ISI scores in the first follow-up visit
Average ISI scores over the first six months (FIG. 13) (symptoms of insomnia; patients with subthreshold and clinically significant insomnia scores at baseline): significant reduction over the 6-month period
Short-term change in ISI score from baseline to first follow-up (Visit 1 coefficient) (symptoms of insomnia; pooled specification, no patient fixed effects, 228 patients, baseline mean 14.145, average 46.9 days, SE 0.393, p < 0.001): −3.254***
Change in ISI score between visits versus cannabidiol dosage (symptoms of insomnia; prescribed between approximately 10 mg to 200 mg): report less insomnia at the first follow-up visit
Change in ISI score, Visit 1 coefficient in model with interaction terms (symptoms of insomnia; reference category 'no clinically significant insomnia' at baseline, patient fixed effects, 228 patients, SE 0.646, not significant): 0.959
Change in ISI score, Visit 1 × subthreshold insomnia interaction coefficient (symptoms of insomnia; relative to 'no clinically significant insomnia', patient fixed effects, 228 patients, SE 0.901, p < 0.001): −3.308***
Change in ISI score, Visit 1 × clinical insomnia (moderate severity) interaction coefficient (symptoms of insomnia; relative to 'no clinically significant insomnia', patient fixed effects, 228 patients, SE 0.970, p < 0.001): −6.231***
Change in ISI score, Visit 1 × clinical insomnia (severe) interaction coefficient (symptoms of insomnia; relative to 'no clinically significant insomnia', patient fixed effects, 228 patients, SE 1.039, p < 0.001): −7.122***
Change in ISI score between Visit 0 and Visit 1, by initial assessment category (symptoms of insomnia; subsample Clinical insomnia (moderate severity), 70 patients, baseline mean 17.757, SE 0.726, p < 0.001): −5.271***
Change in ISI score between Visit 0 and Visit 1, by initial assessment category (symptoms of insomnia; subsample Clinical insomnia (severe), 43 patients, baseline mean 24.256, SE 0.823, p < 0.001): −6.163***
Change in ISI score between Visit 0 and Visit 1, by initial assessment category (symptoms of insomnia; subsample No clinically significant insomnia, 49 patients, baseline mean 3.857, SE 0.652, not significant): 0.959
Change in ISI score between Visit 0 and Visit 1, by initial assessment category (symptoms of insomnia; subsample Subthreshold insomnia, 66 patients, baseline mean 11.364, SE 0.631, p < 0.001): −2.349***
